Values joined by “and” are separate entries in the source; they are usually repeats but may differ in a detail not shown here. Identical values can stand only once.
Columns and labels:
Assay in all cases: KINOMEscan competition binding
Settings in all cases: compound 10.0 µM
[1] = molecular target: ABL2 (human) (UniProt P42684)
[2] = molecular target: ADCK4 (human) (UniProt Q96D53)
[3] = molecular target: BMPR2 (human) (UniProt Q13873)
[4] = molecular target: CDC42BPG (human) (UniProt Q6DT37)
[5] = molecular target: CDK13 (human) (UniProt Q14004)
CDK13 (human), sequence (Q14004 whole entry, looked up): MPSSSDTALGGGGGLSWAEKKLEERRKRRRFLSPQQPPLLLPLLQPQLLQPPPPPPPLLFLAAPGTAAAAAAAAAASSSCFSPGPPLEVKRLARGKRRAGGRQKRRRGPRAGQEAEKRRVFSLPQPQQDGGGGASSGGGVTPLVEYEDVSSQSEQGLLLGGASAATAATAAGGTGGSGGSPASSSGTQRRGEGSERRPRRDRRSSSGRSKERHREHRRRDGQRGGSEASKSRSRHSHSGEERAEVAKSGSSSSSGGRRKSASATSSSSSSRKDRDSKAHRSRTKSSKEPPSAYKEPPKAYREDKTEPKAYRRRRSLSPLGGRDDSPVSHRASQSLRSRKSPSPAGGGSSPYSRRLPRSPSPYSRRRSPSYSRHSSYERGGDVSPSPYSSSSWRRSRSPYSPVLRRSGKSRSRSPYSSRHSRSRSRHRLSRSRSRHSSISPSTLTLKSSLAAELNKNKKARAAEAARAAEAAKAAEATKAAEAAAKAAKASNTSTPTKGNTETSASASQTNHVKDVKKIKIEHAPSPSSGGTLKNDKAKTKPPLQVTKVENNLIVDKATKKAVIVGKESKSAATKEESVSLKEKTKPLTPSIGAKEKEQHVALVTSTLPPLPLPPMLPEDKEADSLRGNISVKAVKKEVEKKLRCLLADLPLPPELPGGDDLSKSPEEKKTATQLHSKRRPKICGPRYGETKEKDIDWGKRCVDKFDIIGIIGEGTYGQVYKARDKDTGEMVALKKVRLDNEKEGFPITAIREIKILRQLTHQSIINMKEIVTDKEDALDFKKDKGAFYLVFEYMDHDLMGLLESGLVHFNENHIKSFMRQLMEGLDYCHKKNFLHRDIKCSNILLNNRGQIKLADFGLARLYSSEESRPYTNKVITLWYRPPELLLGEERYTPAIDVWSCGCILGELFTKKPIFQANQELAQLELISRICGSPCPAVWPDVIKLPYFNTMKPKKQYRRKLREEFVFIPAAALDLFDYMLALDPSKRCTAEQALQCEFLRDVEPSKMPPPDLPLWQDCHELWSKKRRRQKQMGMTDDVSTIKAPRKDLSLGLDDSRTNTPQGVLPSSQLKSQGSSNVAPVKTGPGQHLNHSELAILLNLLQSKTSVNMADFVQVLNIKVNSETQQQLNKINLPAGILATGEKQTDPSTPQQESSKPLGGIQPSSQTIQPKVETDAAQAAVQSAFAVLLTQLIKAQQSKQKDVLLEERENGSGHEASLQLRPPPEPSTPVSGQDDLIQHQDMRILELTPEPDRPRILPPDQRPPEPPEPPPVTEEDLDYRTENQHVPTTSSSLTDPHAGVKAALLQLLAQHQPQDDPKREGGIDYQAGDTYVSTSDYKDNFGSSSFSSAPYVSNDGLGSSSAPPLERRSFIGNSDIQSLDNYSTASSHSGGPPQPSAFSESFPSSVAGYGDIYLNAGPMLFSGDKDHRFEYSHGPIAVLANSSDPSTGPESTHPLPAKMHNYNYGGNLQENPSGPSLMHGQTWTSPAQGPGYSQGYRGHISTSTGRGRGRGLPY

[6] = molecular target: CDK17 (human) (UniProt Q00537)
[7] = molecular target: CDK18 (human) (UniProt Q07002)
CDK18 (human), sequence (Q07002 whole entry, looked up): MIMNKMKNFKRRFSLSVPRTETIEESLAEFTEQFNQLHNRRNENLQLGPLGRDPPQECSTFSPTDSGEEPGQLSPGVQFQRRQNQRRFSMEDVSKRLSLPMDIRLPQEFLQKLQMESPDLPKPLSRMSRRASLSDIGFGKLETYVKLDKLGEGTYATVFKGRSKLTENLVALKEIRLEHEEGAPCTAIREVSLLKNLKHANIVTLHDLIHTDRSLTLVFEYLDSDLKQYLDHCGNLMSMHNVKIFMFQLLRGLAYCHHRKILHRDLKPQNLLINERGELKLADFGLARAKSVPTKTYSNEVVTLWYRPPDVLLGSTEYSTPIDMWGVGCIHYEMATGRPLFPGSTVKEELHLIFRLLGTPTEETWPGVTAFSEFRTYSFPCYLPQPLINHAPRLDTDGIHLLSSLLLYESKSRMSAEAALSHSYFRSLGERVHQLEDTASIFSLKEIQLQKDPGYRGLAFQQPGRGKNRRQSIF

[8] = molecular target: CDK8 (human) (UniProt P49336)
[9] = molecular target: CDK9 (human) (UniProt P50750)
[10] = molecular target: CDKL1 (human) (UniProt Q00532)
[11] = system: CPK1 (P.falciparum)
[12] = molecular target: CRK2 (P.falciparum) (UniProt P61075)
[13] = molecular target: CSK (human) (UniProt P41240)
[14] = molecular target: EPHA1 (human) (UniProt P21709)
EPHA1 (human), sequence (P21709 whole entry, looked up): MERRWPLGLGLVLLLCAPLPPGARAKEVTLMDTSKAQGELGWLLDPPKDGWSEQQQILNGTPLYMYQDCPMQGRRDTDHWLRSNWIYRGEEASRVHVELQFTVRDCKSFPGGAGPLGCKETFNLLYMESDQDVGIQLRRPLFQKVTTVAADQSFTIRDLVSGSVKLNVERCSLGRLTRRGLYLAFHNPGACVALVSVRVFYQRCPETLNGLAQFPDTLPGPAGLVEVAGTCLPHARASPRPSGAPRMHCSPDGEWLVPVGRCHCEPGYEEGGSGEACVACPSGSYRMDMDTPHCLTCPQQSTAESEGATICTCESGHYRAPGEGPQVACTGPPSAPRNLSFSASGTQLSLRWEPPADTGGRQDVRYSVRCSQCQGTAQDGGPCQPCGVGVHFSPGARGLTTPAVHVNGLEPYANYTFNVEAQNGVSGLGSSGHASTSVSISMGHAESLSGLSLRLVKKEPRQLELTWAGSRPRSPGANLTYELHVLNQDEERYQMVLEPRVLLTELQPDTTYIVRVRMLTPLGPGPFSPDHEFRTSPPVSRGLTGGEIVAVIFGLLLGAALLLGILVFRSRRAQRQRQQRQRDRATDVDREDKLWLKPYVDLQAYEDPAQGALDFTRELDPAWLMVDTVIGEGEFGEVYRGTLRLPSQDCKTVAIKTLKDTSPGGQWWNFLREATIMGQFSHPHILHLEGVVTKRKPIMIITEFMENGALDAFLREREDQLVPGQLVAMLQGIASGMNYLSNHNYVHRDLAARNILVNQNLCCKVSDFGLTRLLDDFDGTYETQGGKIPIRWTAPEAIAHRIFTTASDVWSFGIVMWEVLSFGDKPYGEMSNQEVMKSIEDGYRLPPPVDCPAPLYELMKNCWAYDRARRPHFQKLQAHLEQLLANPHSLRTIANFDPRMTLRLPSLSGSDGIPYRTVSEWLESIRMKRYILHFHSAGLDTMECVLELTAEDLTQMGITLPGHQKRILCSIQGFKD

[15] = molecular target: EPHA2 (human) (UniProt P29317)
[16] = molecular target: EPHA4 (human) (UniProt P54764)
[17] = molecular target: EPHB4 (human) (UniProt P54760)
[18] = molecular target: FES (human) (UniProt P07332)
[19] = molecular target: FGFR3 (human) (UniProt P22607)
FGFR3 (human), sequence (P22607 whole entry, looked up): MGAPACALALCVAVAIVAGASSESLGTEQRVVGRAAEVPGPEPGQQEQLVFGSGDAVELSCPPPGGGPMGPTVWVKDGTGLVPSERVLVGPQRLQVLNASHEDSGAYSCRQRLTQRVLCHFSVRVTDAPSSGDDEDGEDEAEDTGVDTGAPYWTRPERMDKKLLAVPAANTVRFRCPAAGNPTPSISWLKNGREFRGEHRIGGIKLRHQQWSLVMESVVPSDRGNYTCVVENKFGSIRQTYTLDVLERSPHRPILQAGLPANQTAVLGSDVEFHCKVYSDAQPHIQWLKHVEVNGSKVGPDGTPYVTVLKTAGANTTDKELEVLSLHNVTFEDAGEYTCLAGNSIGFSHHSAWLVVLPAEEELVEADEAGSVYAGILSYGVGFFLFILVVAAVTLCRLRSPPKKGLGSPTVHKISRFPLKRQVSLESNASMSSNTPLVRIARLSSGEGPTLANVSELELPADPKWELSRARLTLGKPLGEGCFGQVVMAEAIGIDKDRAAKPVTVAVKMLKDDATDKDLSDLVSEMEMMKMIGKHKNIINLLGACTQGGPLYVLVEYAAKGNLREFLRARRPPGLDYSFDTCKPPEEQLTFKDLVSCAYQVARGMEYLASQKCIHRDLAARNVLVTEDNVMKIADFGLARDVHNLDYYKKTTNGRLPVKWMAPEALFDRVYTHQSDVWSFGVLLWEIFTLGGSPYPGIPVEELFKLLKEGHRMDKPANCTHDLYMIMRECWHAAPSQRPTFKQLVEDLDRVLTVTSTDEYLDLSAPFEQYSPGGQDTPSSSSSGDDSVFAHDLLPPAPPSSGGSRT

[20] = system: FGFR3 (human), P22607 [G697C]
[21] = molecular target: IGF1R (human) (UniProt P08069)
[22] = molecular target: IKBKB (human) (UniProt O14920)
[23] = molecular target: ITK (human) (UniProt Q08881)
[24] = molecular target: KDR (human) (UniProt P35968)
KDR (human), sequence (P35968 whole entry, looked up): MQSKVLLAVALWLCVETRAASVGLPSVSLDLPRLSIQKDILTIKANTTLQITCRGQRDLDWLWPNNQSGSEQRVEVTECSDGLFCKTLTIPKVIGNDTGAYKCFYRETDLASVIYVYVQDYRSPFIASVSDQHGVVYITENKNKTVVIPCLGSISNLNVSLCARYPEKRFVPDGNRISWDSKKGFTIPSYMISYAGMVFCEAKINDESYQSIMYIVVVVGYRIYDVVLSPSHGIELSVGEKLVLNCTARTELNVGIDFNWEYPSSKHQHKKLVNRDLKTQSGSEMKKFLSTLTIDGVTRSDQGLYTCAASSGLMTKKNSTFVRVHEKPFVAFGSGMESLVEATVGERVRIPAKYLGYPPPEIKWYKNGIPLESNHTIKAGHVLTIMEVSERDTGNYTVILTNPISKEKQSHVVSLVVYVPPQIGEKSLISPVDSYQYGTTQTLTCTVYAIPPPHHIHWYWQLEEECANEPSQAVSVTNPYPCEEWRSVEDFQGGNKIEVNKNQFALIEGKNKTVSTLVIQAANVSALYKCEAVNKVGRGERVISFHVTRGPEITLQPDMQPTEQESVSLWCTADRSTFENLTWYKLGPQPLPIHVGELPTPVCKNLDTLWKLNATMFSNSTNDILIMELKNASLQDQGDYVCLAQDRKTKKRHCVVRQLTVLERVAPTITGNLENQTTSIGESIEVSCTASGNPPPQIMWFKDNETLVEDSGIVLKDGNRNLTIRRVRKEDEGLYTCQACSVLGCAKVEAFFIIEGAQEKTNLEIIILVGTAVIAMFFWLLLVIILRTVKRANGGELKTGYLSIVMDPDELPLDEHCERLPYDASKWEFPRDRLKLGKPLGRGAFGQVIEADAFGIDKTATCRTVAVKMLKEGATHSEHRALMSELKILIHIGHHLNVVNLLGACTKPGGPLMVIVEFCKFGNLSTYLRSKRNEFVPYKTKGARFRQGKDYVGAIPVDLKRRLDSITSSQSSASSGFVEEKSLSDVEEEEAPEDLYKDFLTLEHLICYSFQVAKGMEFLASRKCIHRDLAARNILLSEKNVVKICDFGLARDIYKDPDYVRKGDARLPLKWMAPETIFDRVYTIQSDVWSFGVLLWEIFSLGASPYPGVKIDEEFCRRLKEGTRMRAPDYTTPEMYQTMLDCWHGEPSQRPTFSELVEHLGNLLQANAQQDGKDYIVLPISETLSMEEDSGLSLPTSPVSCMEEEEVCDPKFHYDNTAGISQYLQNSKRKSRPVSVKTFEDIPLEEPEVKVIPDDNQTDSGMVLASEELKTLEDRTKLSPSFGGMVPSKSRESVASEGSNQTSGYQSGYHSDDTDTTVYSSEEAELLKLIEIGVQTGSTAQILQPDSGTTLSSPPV

[25] = molecular target: LIMK1 (human) (UniProt P53667)
[26] = molecular target: MAP2K1 (human) (UniProt Q02750)
[27] = molecular target: NTRK2 (human) (UniProt Q16620)
[28] = molecular target: PAK1 (human) (UniProt Q13153)
[29] = molecular target: PDGFRB (human) (UniProt P09619)
[30] = molecular target: PIM2 (human) (UniProt Q9P1W9)
[31] = molecular target: PIM3 (human) (UniProt Q86V86)
[32] = molecular target: PLK4 (human) (UniProt O00444)
[33] = molecular target: PRKACB (human) (UniProt P22694)
[34] = molecular target: PRKCI (human) (UniProt P41743)
[35] = molecular target: SGK110 (human) (UniProt P0C264)
[36] = molecular target: SGK3 (human) (UniProt Q96BR1)
[37] = molecular target: SRPK2 (human) (UniProt P78362)
[38] = molecular target: STK17B (human) (UniProt O94768)
[39] = molecular target: STK3 (human) (UniProt Q13188)
[40] = molecular target: STK33 (human) (UniProt Q9BYT3)
[41] = molecular target: TEC (human) (UniProt P42680)

With `COc1cc2ncnc(Nc3cccc(Cl)c3)c2cc1OC` the kinase still bound, per cent of control [1] was 34%, the kinase still bound, per cent of control [2] was 28% and the kinase still bound, per cent of control [3] was 100%. It also gave a kinase still bound, per cent of control [4] of 56%, a kinase still bound, per cent of control [5] of 91% and a kinase still bound, per cent of control [6] of 79%. It also gave a kinase still bound, per cent of control [7] of 79%, a kinase still bound, per cent of control [8] of 100% and a kinase still bound, per cent of control [9] of 100%. It also gave a kinase still bound, per cent of control [10] of 90%, a kinase still bound, per cent of control [11] of 34% and a kinase still bound, per cent of control [12] of 100%. It also gave a kinase still bound, per cent of control [13] of 62%, a kinase still bound, per cent of control [14] of 43% and a kinase still bound, per cent of control [15] of 62%. It also gave a kinase still bound, per cent of control [16] of 72%, a kinase still bound, per cent of control [17] of 38% and a kinase still bound, per cent of control [18] of 96%. The kinase still bound, per cent of control [19] was 99%, the kinase still bound, per cent of control [20] was 100% and the kinase still bound, per cent of control [21] was 100%. For the same molecule, the kinase still bound, per cent of control [22] was 66%, the kinase still bound, per cent of control [23] was 100% and the kinase still bound, per cent of control [24] was 31%. It also gave a kinase still bound, per cent of control [25] of 100%, a kinase still bound, per cent of control [26] of 25% and a kinase still bound, per cent of control [27] of 80%. The kinase still bound, per cent of control [28] was 85%, the kinase still bound, per cent of control [29] was 30% and the kinase still bound, per cent of control [30] was 74%. For the same molecule, the kinase still bound, per cent of control [31] was 54%, the kinase still bound, per cent of control [32] was 30% and the kinase still bound, per cent of control [33] was 100%. For the same molecule, the kinase still bound, per cent of control [34] was 80%, the kinase still bound, per cent of control [35] was 65% and the kinase still bound, per cent of control [36] was 65% and 84%. The kinase still bound, per cent of control [37] was 62%, the kinase still bound, per cent of control [38] was 40% and the kinase still bound, per cent of control [39] was 91%. It also gave a kinase still bound, per cent of control [40] of 73% and a kinase still bound, per cent of control [41] of 100%.

In the case of `CCN1CCN(Cc2ccc(NC(=O)c3ccc(C)c(/C=C/c4cnc5[nH]ccc5c4OC)c3)cc2C(F)(F)F)CC1`, the kinase still bound, per cent of control [1] is reported as 0%, the kinase still bound, per cent of control [2] is reported as 100% and the kinase still bound, per cent of control [3] is reported as 6.6%. It also gave a kinase still bound, per cent of control [4] of 16%, a kinase still bound, per cent of control [5] of 100% and a kinase still bound, per cent of control [6] of 61%. The kinase still bound, per cent of control [7] was 100%, the kinase still bound, per cent of control [8] was 21% and the kinase still bound, per cent of control [9] was 96%. The kinase still bound, per cent of control [10] was 61%, the kinase still bound, per cent of control [11] was 0.2% and the kinase still bound, per cent of control [12] was 93%. For the same molecule, the kinase still bound, per cent of control [13] was 0.75%, the kinase still bound, per cent of control [14] was 2% and the kinase still bound, per cent of control [15] was 1.7%. It also gave a kinase still bound, per cent of control [16] of 0%, a kinase still bound, per cent of control [17] of 2.7% and a kinase still bound, per cent of control [18] of 0.2%. For the same molecule, the kinase still bound, per cent of control [19] was 1.8%, the kinase still bound, per cent of control [20] was 2.5% and the kinase still bound, per cent of control [21] was 100%. It also gave a kinase still bound, per cent of control [22] of 0.15%, a kinase still bound, per cent of control [23] of 18% and a kinase still bound, per cent of control [24] of 2.6%. For the same molecule, the kinase still bound, per cent of control [25] was 7.7%, the kinase still bound, per cent of control [26] was 74% and the kinase still bound, per cent of control [27] was 5.2%. The kinase still bound, per cent of control [28] was 100%, the kinase still bound, per cent of control [29] was 0.05% and the kinase still bound, per cent of control [30] was 100%. It also gave a kinase still bound, per cent of control [31] of 100%, a kinase still bound, per cent of control [32] of 59% and a kinase still bound, per cent of control [33] of 100%. It also gave a kinase still bound, per cent of control [34] of 100%, a kinase still bound, per cent of control [35] of 41% and a kinase still bound, per cent of control [36] of 38%. It also gave a kinase still bound, per cent of control [37] of 28%, a kinase still bound, per cent of control [38] of 1% and a kinase still bound, per cent of control [39] of 5.2%. It also gave a kinase still bound, per cent of control [40] of 31% and a kinase still bound, per cent of control [41] of 0.5%.

`COc1cc2c(Nc3ccc(NC(=O)c4ccccc4)cc3)ncnc2cc1OCCCN1CCOCC1` was tested, and the kinase still bound, per cent of control [1] was 82%, the kinase still bound, per cent of control [2] was 66% and the kinase still bound, per cent of control [3] was 81%. The kinase still bound, per cent of control [4] was 72%, the kinase still bound, per cent of control [5] was 100% and the kinase still bound, per cent of control [6] was 94%. For the same molecule, the kinase still bound, per cent of control [7] was 75%, the kinase still bound, per cent of control [8] was 100% and the kinase still bound, per cent of control [9] was 100%. The kinase still bound, per cent of control [10] was 81%, the kinase still bound, per cent of control [11] was 47% and the kinase still bound, per cent of control [12] was 100%. For the same molecule, the kinase still bound, per cent of control [13] was 7.9%, the kinase still bound, per cent of control [14] was 100% and the kinase still bound, per cent of control [15] was 84%. It also gave a kinase still bound, per cent of control [16] of 98%, a kinase still bound, per cent of control [17] of 100% and a kinase still bound, per cent of control [18] of 100%. The kinase still bound, per cent of control [19] was 67%, the kinase still bound, per cent of control [20] was 100% and the kinase still bound, per cent of control [21] was 100%. It also gave a kinase still bound, per cent of control [22] of 100%, a kinase still bound, per cent of control [23] of 100% and a kinase still bound, per cent of control [24] of 26%. For the same molecule, the kinase still bound, per cent of control [25] was 100%, the kinase still bound, per cent of control [26] was 0.1% and the kinase still bound, per cent of control [27] was 17%. For the same molecule, the kinase still bound, per cent of control [28] was 82%, the kinase still bound, per cent of control [29] was 1.1% and the kinase still bound, per cent of control [30] was 100%. For the same molecule, the kinase still bound, per cent of control [31] was 100%, the kinase still bound, per cent of control [32] was 2% and the kinase still bound, per cent of control [33] was 100%. It also gave a kinase still bound, per cent of control [34] of 94%, a kinase still bound, per cent of control [35] of 100% and a kinase still bound, per cent of control [36] of 100%. The kinase still bound, per cent of control [37] was 86%, the kinase still bound, per cent of control [38] was 100% and the kinase still bound, per cent of control [39] was 100%. For the same molecule, the kinase still bound, per cent of control [40] was 67% and the kinase still bound, per cent of control [41] was 76%.

From the kinase profiling compilation of Christmann-Franck et al. (2016)
